Measured values taken from ChEMBL document CHEMBL1149729, “A bioassay for inhibition of serotonin release from bovine platelets” (J Nat Prod, 1992).
Where a name gives a salt, the structure may show the parent alone.

Tests used:
[1] = Antimigraine activity in human citreated platelet assessed as inhibition of [14C]serotonin release after 6 mins by scintillation counting; assay type: functional, cell-based; conditions: 0.1 h
[2] = Antimigraine activity in ADP-stimulated bovine citreated platelet assessed as inhibition of [14C]serotonin release at 100 uM after 6 mins by scintillation counting; assay type: functional; conditions: Bos taurus, 0.1 h
[3] = Antimigraine activity in bovine citreated platelet assessed as inhibition of [14C]serotonin release after 6 mins by scintillation counting; assay type: functional, cell-based; conditions: Bos taurus, 0.1 h

| IC50 [1] [µM] | IC50 [3] [µM] | SMILES | inhibition at 100 µM [2] [%] |
| --- | --- | --- | --- |
| 5.64 |  | C=C1C(=O)O[C@@H]2C3O[C@]3(C)CC/C=C(\C)CC[C@@H]12 (stereo not given in full) | 20.3 |
| 770 | 578 | COc1ccc(CCN(C)CCCC(C#N)(c2ccc(OC)c(OC)c2)C(C)C)cc1OC (stereo not given) [VERAPAMIL HYDROCHLORIDE] |  |
|  | > 516 | C=C1C(=O)O[C@@H]2C[C@@]3(C)CCCC(=C)[C@@H]3C[C@H]12 [ISOALANTOLACTONE] |  |
